# From patent US10508109B2 (priority 2015, dated 2019)
# Structures can show the parent of a compound that is named as a salt. Where two headings read alike, the source gives them in different places.
# Columns and labels:
# A549 = experiment: Cell-based assay, anti-proliferative activity (Cell Counting Kit-8, 72 hours); details: Homo sapiens, read-out: IC50 (μM) A549
# How it was run: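 Growth read-out after inhibitor treatment of plated cells; potency expressed as IC50.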
# CCD-18Co = experiment: as above; details: Homo sapiens, read-out: IC50 (μM) CCD-18Co
# How it was run: (§1)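 Seed cells in 96-well plates; add serially diluted inhibitor (1.5625 to 100 micro-M plus vehicle); incubate 72 hours; quantify viable growth by CCK-8 and calculate IC50.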
# HCT-116 = experiment: as above; details: Homo sapiens, read-out: IC50 (μM) HCT-116
# How it was run: as §1
# HFL1 = experiment: as above; details: Homo sapiens, read-out: IC50 (μM) HFL1
# How it was run: as §1
# PC14 = experiment: as above; details: Homo sapiens, read-out: IC50 (μM) PC14
# How it was run: as §1
# SUV39H2 = SUV39H2 (Homo sapiens (Human), UniProt Q9H5I1); details: read-out: IC50 (μM) Suv 39H2 assay
# [1] = A549 cells, 72 hours, Cell Counting Kit-8
# [2] = CCD-18Co cells, 72 hours, Cell Counting Kit-8
# [3] = HCT-116 cells, 72 hours, Cell Counting Kit-8
# [4] = HFL1 cells, 72 hours, Cell Counting Kit-8
# [5] = PC-14, PC14 cells, 72 hours, Cell Counting Kit-8
# [6] = A549 cells, Cell Counting Kit-8, 72 hours
# [7] = CCD-18Co cells, Cell Counting Kit-8, 72 hours
# [8] = HCT-116 cells, Cell Counting Kit-8, 72 hours
# [9] = HFL1 cells, Cell Counting Kit-8, 72 hours
# Sequence of SUV39H2 (Q9H5I1 whole entry): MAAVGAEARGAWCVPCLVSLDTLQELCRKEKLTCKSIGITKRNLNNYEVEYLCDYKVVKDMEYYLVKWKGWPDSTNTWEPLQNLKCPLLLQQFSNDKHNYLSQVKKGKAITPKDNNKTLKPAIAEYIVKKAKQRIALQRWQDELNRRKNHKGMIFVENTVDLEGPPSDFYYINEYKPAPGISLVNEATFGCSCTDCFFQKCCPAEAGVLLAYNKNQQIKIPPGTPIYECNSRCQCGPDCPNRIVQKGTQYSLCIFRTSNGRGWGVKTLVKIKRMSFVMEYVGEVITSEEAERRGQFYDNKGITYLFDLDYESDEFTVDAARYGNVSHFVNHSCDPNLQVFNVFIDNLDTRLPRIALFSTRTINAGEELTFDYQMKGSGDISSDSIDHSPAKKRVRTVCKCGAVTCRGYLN
Structure (SMILES),IC50 (A549; [1]) [µM],IC50 (CCD-18Co; [2]) [µM],IC50 (HCT-116; [3]) [µM],IC50 (HFL1; [4]) [µM],IC50 (PC14; [5]) [µM],IC50 (SUV39H2; enzyme assay) [µM],IC50 (A549; [6]) [µM],IC50 (CCD-18Co; [7]) [µM],IC50 (HCT-116; [8]) [µM],IC50 (HFL1; [9]) [µM],further results
"COc1cc(OCCCN(C)C)c(-c2cn3ccc(N4CCCN(S(C)(=O)=O)CC4)cc3n2)cc1Cl [Example 213, 3-(4-chloro-2-(7-(4-(methylsulfonyl)-1,4-diazepan-1-yl)imidazo-[1,2-a]pyridin-2-yl)-5-methoxyphenoxy)-N,N-dimethylpropan-1-amine]",10,10,5.5,7.4,9.1,0.0145,,,,,
"COc1cc(OC)c(-c2cn3ccc(N4CCN(C(=O)C5CC5)CC4)cc3n2)cc1Cl [Example 238, (4-(2-(5-chloro-2,4-dimethoxyphenyl)imidazo[1,2-a]pyridine-7-yl)piperazin-1-yl)(cyclopropyl)methanone]",2.5,3,2.9,2.4,1.6,0.00416,,,,,
"COc1cc(OC)c(-c2nc3cc(N4CCN(C(=O)OC(C)(C)C)CC4)ccn3c2I)cc1Cl [Example 290, tert-butyl 4-(2-(5-chloro-2,4-dimethoxyphenyl)-3-iodoimidazo[1,2-a]-pyridin-7-yl)piperazine-1-carboxylate]",1.3,1.4,1.3,1.3,0.61,0.00975,,,,,
"COc1cc(OC)c(-c2cn3ccc(N4CCN(C5CCCC5)CC4)cc3n2)cc1Cl [Example 239, 2-(5-chloro-2,4-dimethoxyphenyl)-7-(4-cyclopentylpiperazin-1-yl)imidazo[1,2-a]pyridine]",1.5,2.1,1.5,1.7,1.8,0.021,,,,,
"COc1cc(OC)c(-c2cn3ccc(N4CCN(C(=O)C5CC5)CC4)nc3n2)cc1Cl [Example 242, (4-(2-(5-Chloro-2,4-dimethoxyphenyl)imidazo[1,2-a]pyrimidin-7-yl)-piperazin-1-yl)(cyclopropyl)methanone]",10,10,10,10,6.3,0.0154,,,,,
"COc1cc(OC)c(-c2cn3ccc(N4CCC(NC(C)=O)CC4)cc3n2)cc1Cl [Example 124, N-{1-[2-(5-chloro-2,4-dimethoxyphenyl)imidazo[1,2-a]pyridin-7-yl]piperidin-4-yl}acetamide]",,,,,,0.00327,2.2,3.1,1.9,3.1,"IC50 (PC14; PC-14, PC14 cells, Cell Counting Kit-8, 72 hours): 1.9 µM"
"COc1cc(OCCCN(C)C)c(-c2cn3ccc(N4CCCN(S(=O)(=O)N(C)C)CC4)cc3n2)cc1Cl [Example 216, 4-(2-{5-chloro-2-[3-(dimethylamino)propoxy]-4-methoxyphenyl}-imidazo[1,2-a]pyridin-7-yl)-N,N-dimethyl-1,4-diazepane-1-sulfonamide]",1.9,2.7,3.3,1.5,1.6,0.0194,,,,,
"COc1cc(OC)c(-c2cn3ccc(N4CCN(C(=O)OC(C)(C)C)C(C)C4)cc3n2)cc1Cl (stereo not shown) [Example 275, tert-butyl 4-(2-(5-chloro-2,4-dimethoxyphenyl)imidazo[1,2-a]pyridin-7-yl)-2-methylpiperazine-1-carboxylate]",1.3,1.4,1.4,1.1,0.87,0.00333,,,,,
"CNCC(=O)Nc1ccc(-c2ccn3cc(-c4cc(Cl)c(OC)cc4OC)nc3c2)cc1 [Example 273, N-(4-(2-(5-chloro-2,4-dimethoxyphenyl)imidazo[1,2-a]pyridin-7-yl)phenyl)-2-(methylamino)acetamide hydrochloride]",,,,,,,,,,,"IC50 (A549; A549, 72 h): 1.5 µM; IC50 (CCD-18Co; CCD-18Co, 72 h): 1.1 µM; IC50 (HCT-116; HCT-116, 72 h): 0.86 µM; IC50 (HFL1; HFL1, 72 h): 1.2 µM; IC50 (PC14; PC-14, 72 h): 1.1 µM"
"COc1cc(OC)c(-c2cn3ccc(N4CC[C@H](NCc5ccncc5)C4)cc3n2)cc1Cl [Example 298, (S)-1-(2-(5-chloro-2,4-dimethoxyphenyl)imidazo[1,2-a]pyridin-7-yl)-N-(pyridin-4-ylmethyl)pyrrolidin-3-amine trihydrochloride]",0.67,1.4,0.5,0.84,0.79,,,,,,
"COc1cc(OC)c(-c2cn3ccc(NC(=O)C(N)CCCCN)cc3n2)cc1Cl (stereo in doubt) [Example 247, (S)-2,6-diamino-N-(2-(5-chloro-2,4-dimethoxyphenyl)imidazo[1,2-a]-pyridin-7-yl)hexanamide]",10,10,10,10,5.7,,,,,,
"COC(=O)N1CC=C(c2ccn3cc(-c4cc(Cl)c(OC)cc4OC)nc3c2)CC1 [Example 102, methyl 4-[2-(5-chloro-2,4-dimethoxyphenyl)imidazo[1,2-a]pyridin-7-yl]-5,6-dihydropyridine-1(2H)-carboxylate]",,,,,,0.0756,1.6,2.8,1.9,2.3,
"COc1cc(OCC2CC2)c(-c2cn3ccc(N4CCOCC4)cc3n2)cc1Cl [Example 84, 4-(2-(5-chloro-2-(cyclopropylmethoxy)-4-methoxyphenyl)imidazo-[1,2-a]pyridin-7-yl)morpholine]",,,,,,0.0138,4.6,4.3,3.8,3.2,
"COc1cc(OC)c(-c2cn3ccc(NCCNC(C)=O)cc3n2)cc1Cl [Example 77, N-(2-((2-(5-chloro-2,4-dimethoxyphenyl)imidazo[1,2-a]pyridin-7-yl)amino)ethyl)acetamide]",,,,,,0.0101,30,31,21,15,
"COc1cc(OC)c(-c2cn3ccc(NCCN4CCOCC4)cc3n2)cc1Cl [Example 70, 2-(5-chloro-2,4-dimethoxyphenyl)-N-(2-morpholinoethyl)imidazo[1,2-a]pyridine-7-amine]",,,,,,0.0165,14,14,10,8.4,
"COc1cc(OC)c(-c2cn3ccc(N4CCC(N)CC4)cc3n2)cc1Cl [Example 15, 1-[2-(5-chloro-2,4-dimethoxyphenyl)imidazo[1,2-a]pyridin-7-yl]piperidin-4-amine]",,,,,,0.0133,3.5,6.7,3.4,2.7,
"COc1cc(OC)c(-c2cn3ccc(N4CCC(N)C4)nc3n2)cc1Br (stereo not shown) [Example 19, hydrochloride]",,,,,,,,,,,"IC50 (A549; A549, 72 h): 11 µM; IC50 (CCD-18Co; CCD-18Co, 72 h): 16 µM; IC50 (HCT-116; HCT-116, 72 h): 7.9 µM; IC50 (HFL1; HFL1, 72 h): 4.2 µM; IC50 (SUV39H2): 0.0292 µM"
"COc1cc(OC)c(-c2cn3ccc(N4CCC(NC(=O)OC(C)(C)C)CC4)cc3n2)cc1Cl [Example 14, tert-butyl {1-[2-(5-chloro-2,4-dimethoxyphenyl)imidazo[1,2-a]pyridin-7-yl]piperidin-4-yl}carbamate]",,,,,,0.0341,2.7,1.9,2,1.8,
"COc1cc(OC)c(-c2cn3ccc(-c4cncc(N)c4)cc3n2)cc1Cl [Example 27, 5-[2-(5-chloro-2,4-dimethoxyphenyl)imidazo[1,2-a]pyridin-7-yl]pyridin-3-amine]",,,,,,0.0396,1.9,3.3,3.3,1.8,
"COc1cc(OC)c(-c2cn3ccc(NCCCN)cc3n2)cc1Cl [Example 35, N^1-(2-(5-chloro-2,4-dimethoxyphenyl)imidazo[1,2-a]pyridin-7-yl)propane-1,3-diamine]",,,,,,0.0124,14,14,9.8,7,
"COc1cc(OC)c(-c2cn3ccc(-c4ccc(C(=O)[C@H](C)N)cc4)cc3n2)cc1Cl [Example 274, (S)-2-amino-1-(4-(2-(5-chloro-2,4-dimethoxyphenyl)imidazo[1,2-a]-pyridin-7-yl)phenyl)propan-1-one hydrochloride]",,1.5,1.6,1.4,0.74,,,,,,"IC50 (A549; A549, 72 h): 1.2 µM"
"COc1cc(OC)c(-c2cn3ccc(N4CC[C@@H](NC(=O)OC(C)(C)C)C4)nc3n2)cc1Cl [Example 57, (R)-tert-Butyl (1-(2-(5-chloro-2,4-dimethoxyphenyl)imidazo[1,2-a]pyrimidin-7-yl)-pyrrolidin-3-yl)carbamate]",,,,,,0.0108,7.1,4.8,7.2,4,
